Results on 1 compound are retold here after patent US5312833A, “Method of inhibiting tumor growth using xanthocillin X dimethylether” (Meiji Seika Kaisha, Ltd., priority 1990, dated 1994).

The nature of data set [1]: Acute toxicity in Balb/c mice. The settings on record: mouse, in vivo, ip, injected into the peritoneal cavity, 7-week-old females, survival over 2 weeks, suspension in 1% CMC. The procedure:
Xanthocillin X dimethylether (by way of the same suspension as used in Example 3) was injected into the peritoneal cavity of Balb/c mice (7-week-old females). The animals were reared for the next 2 weeks and their survival was recorded.

In another data set the test system is cancer cells. The experiment in a line: In vitro cytotoxicity on various cancer cells (MTT assay), summary. The conditions noted are these: as indicated in Table 1. Type of data set: cell-based. The procedure: (§1) The effect of a preparation containing xanthocillin X dimethylether on cancer cells was determined by an in vitro test. For a medium, the Modified Dulbecco Minimum Essential Medium combined with 10% fetal serum was placed in a culture dish. The cytotoxic activity was observed on various cancer cells (set forth in Table 1 below) that were serially cultured in this medium in a CO2 incubator. First, the respective cancer cells were suspended in the aforementioned culture medium at a concentration of 5×10^4 cells/ml. Then 135 μl of the suspension was added to a micro-titer plate having 96 wells. Next, 15 μl of the test compound solution was added, and the plates were incubated in CO2 for 3 days. The survival of the cells after the incubation period was determined by the MTT assay (Igaku no Ayumi, Vol. 128, pages 733-735, 1984).
For orientation: Tetrazolium dyes change colour on reduction, which living cells bring about.

Another data set relates to B16. The experiment in a line: In vitro cytotoxicity, MTT assay, B16. Type of data set: cell-based. The conditions noted are these: Mus musculus, 72 h, 3 days incubation, read-out: IC50 (drug concentration to kill 50% of the cells). As to the method: as §1
Data set [2] has as its system Lewis carcinoma of the lung. Briefly: In vitro cytotoxicity, MTT assay, Lewis carcinoma of the lung. The settings on record: 72 h, 3 days incubation, read-out: IC50 (drug concentration to kill 50% of the cells). Type of data set: cell-based. As to the method:
as §1

The test system of a further data set is P388. Briefly: In vitro cytotoxicity, MTT assay, P388. The data set is classed as cell-based. The settings on record: Mus musculus, 72 h, 3 days incubation, read-out: IC50 (drug concentration to kill 50% of the cells). The procedure: as §1
The next data set deals with Meth-A. The experiment in a line: In vitro cytotoxicity, MTT assay, Meth-A. The data set is classed as cell-based, murine. The conditions noted are these: Mus musculus, 72 h, 3 days incubation, read-out: IC50 (drug concentration to kill 50% of the cells). The procedure: as §1
In the next data set the test system is prostaglandin synthesis. The settings on record: literature; cited from earlier work.
Another data set deals with Meth-A solid tumor. Briefly: Suppression of growth of Meth-A solid tumor in Balb/c mice. Type of data set: in vivo. As to the method: 0.1 ml of 10^7 cells/ml of murine fibrosarcoma Meth-A (ascites) were inoculated subcutaneously into Balb/c mice (6-week-old, females) and the test agent was injected intraperitoneally into the mice on the next day.
The test compound had been thoroughly pulverized in a mortar, suspended in 1% carboxymethylcellulose (CMC), and mixed well using ultrasonic. The test compound was administered once daily for 4 consecutive days. Following 2 weeks of rearing, the tumor on the back was excised and its weight was recorded. The percentage by which tumor development was suppressed was computed as follows: {(tumor weight of the control-tumor weight of the test group)/tumor weight of the control group}×100.

SMILES strings stand for the structures. ≈ marks a conversion by molar mass, not a printed value.

In the case of `[C-]#[N+]C(=Cc1ccc(OC)cc1)C(=Cc1ccc(OC)cc1)[N+]#[C-]` [xanthocillin X dimethylether], in data set [1], the 50% lethal dose (LD50) (commonly the dose expected to kill half of the subjects tested) at 336 h is over 120 mg/kg. The “cytotoxicity to a series of cancer cells (in words)” value in the data set on cancer cells is “cytotoxic to a series of cancer cells”. Further, the IC50 with B16 came to 0.45 µg/mL (≈ 1.42 µM); in data set [2], 0.46 µg/mL (≈ 1.45 µM); in the data set with P388 it was 0.67 µg/mL (≈ 2.12 µM); with Meth-A, 0.71 µg/mL (≈ 2.24 µM). Besides, the “inhibition of prostaglandin synthesis (in words)” value in the data set with prostaglandin synthesis is given as “specific inhibitor of prostaglandin synthesis”. Moreover, the “Percentage suppression of tumor growth” value in the data set on Meth-A solid tumor (30 mg/kg/day intraperitoneally, once daily for 4 consecutive days, after 2 weeks, computed from tumor weights versus control (1% CMC)) worked out at 88.5 Percentage. In the data set with Meth-A solid tumor (30 mg/kg/day intraperitoneally, once daily for 4 consecutive days, tumor excised after 2 weeks, mean ± standard deviation, control 0.96 ± 0.60 g), this compound had a Tumor weight of 0.11 ± 0.10 g. For the same compound, the “suppression of growth of Meth-A solid tumors (in words)” value with Meth-A solid tumor (as shown in Table 2) was “markedly suppressed the growth of Meth-A solid tumors”.
